The source of these data is patent publication US20050192285A1, “Method of treatment” (priority 2000, published 2005).

SMILES strings stand for the structures. “And” between values parts separate entries of the source, which are not always exact repeats. Identical values can stand only once.

Assay [1] in a line: GLOBE study: recurrence of AECB requiring antimicrobial treatment over 26 weeks. Format: in vivo, human. The settings on record: for Difference GEMI-CLARI in % patients with no recurrences / % patients resolved and with no recurrences of AECB: ITT; for % patients resolved and with no recurrences of AECB: GEMI 320 mg o.d./5 days, CLARI 500 mg b.d./7 days. Here is the method:
Background: Few health outcome studies have been reported for antimicrobial treatment of acute infections. In one study, trends favoring ciprofloxacin versus ‘usual care’ in terms of clinical outcomes were found (Grossman, et al., Chest, 113:131-141 (1998)). In this double-blind, prospective long-term study, patients who enrolled into a study comparing 320 mg gemifloxacin (GEMI) once daily (o.d.)/5 days with 500 mg clarithromycin (CLARI) twice daily (b.d.)/7 days for the treatment of AECB, and agreed at enrollment to continue in the study for up to 26 weeks, were assessed for clinical status and use of health care resources.
Methods: Clinical assessments were performed at screening (day 0), week 4-5 (end of acute study), weeks 12 and 26 and by telephone at weeks 8, 17 and 21.
(§1) Prospective, 26 week, double-blind, observational parallel/follow-on study to an acute treatment efficacy and safety study (study 068) (Wilson, et al., Abstracts of the 40th Interscience Conference of Clinical Microbiology and Infectious Diseases, Toronto, Canada, Abstract 815 (2000)) in which patients randomly received a single course of either 5 days of oral GEMI 320mg once daily (o.d.) or 7 days of oral CLARI 500 mg twice daily (b.d.) for AECB (Wilson, et al., Abstracts of the 40th Interscience Conference of Clinical Microbiology and Infectious Diseases, Toronto, Canada, Abstract 815 (2000)).
All patients entering study 068 at centers in the USA and Canada were asked to participate in the GLOBE study.
(§2) Patients were assessed at screening (visit 1) at day 28-35 (visit 2) then at weeks 12 (visit 3) and 26 (visit 4) and by telephone at weeks 8, 17 and 21.
(§3) Information was collected on: recurrent episodes of AECB requiring antimicrobial treatment; use of medical resources related to respiratory tract infection (RTI), including RTI-related:- hospitalizations, physician visits and antimicrobial therapy; time off work and usual activities; and negative impact on performance at work or during usual activities.
Clinical outcomes were analyzed for patients in the intention to treat population (ITT) who were available for assessment at 26 weeks (visit 4).

For assay [2] the following is noted: cited from earlier work.
Assay [3] can be described thus: GLOBE study: RTI-related hospitalizations over 26 weeks. Format: in vivo, human. Particulars: for percentage of patients hospitalized for RTI-related conditions / cumulative number of patients hospitalized for RTI-related conditions: 26 week study period; for cumulative number of patients hospitalized for RTI-related conditions: ITT (GEMI N=214, CLARI N=224). How it is done: as §1, §2, §3
Medical resource utilization was analyzed on cumulative data across all patients in the ITT population.

The next assay relates to H. influenzae. The settings on record: subset of patients with daily sputum cultures; p=0.02; cited from earlier work.

`CO/N=C1\CN(c2nc3c(cc2F)c(=O)c(C(=O)O)cn3C2CC2)CC1CN` (racemic) [GEMI, (R,S)-7-(3-aminomethyl-4-methoxyiminopyrrolidin-1-yl)-1-cyclopropyl-6-fluoro-4-oxo-1,4-dihydro-1,8-naphthyridine-3-carboxylic acid]: the “preventing further exacerbations versus CLARI” value in assay [1] (6 month period following start of therapy, GEMI 320 mg o.d./5 days vs CLARI 500 mg b.d./7 days) was “superior to CLARI”. Besides, in assay [1] (GLOBE conclusions), the “long-term clinical outcomes in AECB compared to clarithromycin” value is reported as “superior”. The “patients with a recurrence of AECB” value in assay [1] (by week 26) was 29.0%. Also, the “fewer patients with a recurrence of AECB compared with CLARI” value in assay [1] (by week 26, relative reduction (29.0% vs. 41.5%)) is listed as 30%. Also, in assay [1] (visit 2 (day 28-35)), the “Difference GEMI-CLARI in % patients with no recurrences” value came to 6.3%; the “% patients resolved and with no recurrences of AECB” value is given as 87.1 (176/202) %. Besides, in assay [1] (visit 3 (week 12)), the “Difference GEMI-CLARI in % patients with no recurrences” value is reported as 6.4%; the “% patients resolved and with no recurrences of AECB” value is given as 80.9 (148/183) %. Moreover, in assay [1] (visit 4 (week 26)), the “Difference GEMI-CLARI in % patients with no recurrences” value is 12.5% and 12.5^b %; the “% patients resolved and with no recurrences of AECB” value was 71.0% and 71.0 (120/169) %. In assay [2] (5 days GEMI vs 7 days CLARI), the “effectiveness of acute treatment compared with CLARI” value is “as effective as”. Besides, the “bacteriological success rates compared with CLARI” value in assay [2] (all study visits, significantly higher at late follow-up days 28-35) was “higher”. Also, the “RTI-related hospitalization days per 100 patients” value in assay [3] (26-week study period) was 20 days per 100 patients. For the same compound, in assay [3] (26-week study period, ITT), the “Cumulative number of RTI-related hospitalization days, mean (SD)” value was 0.20 (1.43) days; the “Cumulative number of RTI-related hospitalization days, median (range)” value is 0 (0-16) days; the “Median difference gemifloxacin-clarithromycin in RTI-related hospitalization days (95% CI)” value was 0 (0, 0) days. In addition, the “percentage of patients hospitalized for RTI-related conditions” value in assay [3] (ITT) worked out at 2.3%. Further, the “cumulative number of patients hospitalized for RTI-related conditions” value in assay [3] amounted to 5. Moreover, in assay [3] (26 weeks, ITT), the “RTI-related hospitalizations across all visits, percentage” value is given as 3.3% and the “cumulative number of RTI-related hospitalizations across all visits” value came to 7. In assay [3] (GEMI minus CLARI, 26 weeks), the “treatment difference in RTI-related hospitalizations” value is on record as −3.87% and the “treatment difference in patients hospitalized for RTI-related conditions” value was −3.91%. In the assay on H. influenzae, the “time to H. influenzae eradication compared with CLARI” value is recorded as “significantly faster”.
On to `CC[C@H]1OC(=O)[C@H](C)[C@@H](O[C@H]2C[C@@](C)(OC)[C@@H](O)[C@H](C)O2)[C@H](C)[C@@H](O[C@@H]2O[C@H](C)C[C@H](N(C)C)[C@H]2O)[C@](C)(OC)C[C@@H](C)C(=O)[C@H](C)[C@@H](O)[C@]1(C)O` [CLARI, clarithromycin, reference compound], for which, in assay [1] (by week 26), the “patients with a recurrence of AECB” value is recorded as 41.5%. The “% patients resolved and with no recurrences of AECB” value in assay [1] (visit 2 (day 28-35)) is 80.8 (173/214) %. Also, in assay [1] (visit 3 (week 12)), the “% patients resolved and with no recurrences of AECB” value is given as 74.4 (131/176) %. In assay [1] (visit 4 (week 26)), the “% patients resolved and with no recurrences of AECB” value is 58.5% and 58.5 (100/171) %. Further, the “RTI-related hospitalization days per 100 patients” value in assay [3] (26-week study period) amounted to 37 days per 100 patients. Also, in assay [3] (26-week study period, ITT), the “Cumulative number of RTI-related hospitalization days, mean (SD)” value is on record as 0.37 (1.60) days and the “Cumulative number of RTI-related hospitalization days, median (range)” value was 0 (0-11) days. Further, in assay [3] (ITT), the “percentage of patients hospitalized for RTI-related conditions” value was found to be 6.3%. In addition, in assay [3], the “cumulative number of patients hospitalized for RTI-related conditions” value is listed as 14. Also, in assay [3] (26 weeks, ITT), the “RTI-related hospitalizations across all visits, percentage” value turned out to be 7.1% and the “cumulative number of RTI-related hospitalizations across all visits” value is recorded as 16.
